As a reminder, the IC50 is the concentration that inhibits the measured activity by half.

For this test, the target named is T1, human LTA4 hydrolase (Homo sapiens, UniProt P09960).
T1 sequence (P09960 1-611): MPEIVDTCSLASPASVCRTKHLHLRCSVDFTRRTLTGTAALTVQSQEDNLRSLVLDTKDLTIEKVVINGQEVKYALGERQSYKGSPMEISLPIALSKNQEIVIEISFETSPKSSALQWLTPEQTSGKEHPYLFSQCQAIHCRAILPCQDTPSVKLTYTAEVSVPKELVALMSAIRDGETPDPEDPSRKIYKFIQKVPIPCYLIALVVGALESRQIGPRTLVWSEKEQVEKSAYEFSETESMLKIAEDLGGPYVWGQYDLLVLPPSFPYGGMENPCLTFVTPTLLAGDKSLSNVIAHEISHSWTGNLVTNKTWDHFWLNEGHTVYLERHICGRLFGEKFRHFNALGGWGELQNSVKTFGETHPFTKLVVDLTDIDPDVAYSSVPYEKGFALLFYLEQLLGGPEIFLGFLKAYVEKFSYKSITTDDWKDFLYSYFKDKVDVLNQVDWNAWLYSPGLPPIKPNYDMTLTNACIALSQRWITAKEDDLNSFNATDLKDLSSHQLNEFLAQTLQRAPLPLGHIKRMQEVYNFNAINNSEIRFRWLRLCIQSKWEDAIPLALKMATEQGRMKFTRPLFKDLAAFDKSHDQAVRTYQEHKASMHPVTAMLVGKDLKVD
Put plainly: LTA4H Enzyme assay (cleavage of Arg-AMC, fluorescence). In kind it is biochemical. The settings on record: LTA4H Enzyme 1 nM, Arg-AMC substrate 50 μM, room temperature 1 h, fluorescence; read-out: IC50 values of LTA4H Enzyme assay. An outline of the steps:
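Peptidase activity of human LTA4H (1 nM final) on Arg-AMC (50 μM final), with compound, 1 h at room temperature. Buffer: 50 mM Tris-HCl pH 7.5, 100 mM KCl, 0.5% BSA.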
With `NC(=O)C1CCCN(Cc2ccc(C3COc4ccccc4O3)cc2)C1` (racemic) [Example 114, 1-[4-(2,3-dihydro-1,4-benzodioxin-2-yl)benzyl]piperidine-3-carboxamide], the IC50 came out at 0.77 nM.

`CC(=O)N1CCC(NCc2ccc([C@H]3COc4cccnc4O3)cc2)CC1` [Example 153, 1-[4-({4-[(3S)-2,3-dihydro[1,4]dioxino[2,3-b]pyridin-3-yl]benzyl}amino)piperidin-1-yl]ethanone]: the IC50 was 0.82 nM.

`O=C(CO)NC1CCN(Cc2ccc([C@H]3COc4ccccc4O3)cc2)CC1` [Example 218, N-{1-[(S)-4-(2,3-Dihydro-benzo[1,4]dioxin-2-yl)-benzyl]-piperidin-4-yl}-2-hydroxy-acetamide]: the IC50 amounted to 0.37 nM.

In the case of `CC(=O)N1CCCN(Cc2ccc(C3COc4ccccc4O3)cc2)CC1` (racemic) [Example 31, 1-{4-[4-(2,3-dihydro-1,4-benzodioxin-2-yl)benzyl]-1,4-diazepan-1-yl}ethanone], the IC50 turned out to be 1.54 nM.

For the compound `OCCCC1CCN(Cc2ccc([C@H]3COc4cccnc4O3)cc2)CC1` [Example 149, 3-(1-{4-[(3S)-2,3-dihydro[1,4]dioxino[2,3-b]pyridin-3-yl]benzyl}piperidin-4-yl)propan-1-ol], the IC50 came out at 0.24 nM.

Consider `COCCOC1CCN(Cc2ccc([C@H]3COc4cccnc4O3)cc2)CC1` [Example 170, (3S)-3-(4-{[4-(2-methoxyethoxy)piperidin-1-yl]methyl}phenyl)-2,3-dihydro[1,4]dioxino[2,3-b]pyridine], for which the IC50 is 0.47 nM.

With `O=C(O)[C@H]1CCN(Cc2ccc([C@H]3COc4ccccc4O3)cc2)C1` [Example 215, (3S)-1-{4-[(2S)-2,3-dihydro-1,4-benzodioxin-2-yl]benzyl}pyrrolidine-3-carboxylic acid], the IC50 was determined as 0.7 nM.

With `CN(Cc1ccc([C@H]2COc3ccccc3O2)cc1)C1CCN(S(C)(=O)=O)CC1` [Example 13, N-{4-[(2S)-2,3-dihydro-1,4-benzodioxin-2-yl]benzyl}-N-methyl-1-(methylsulfonyl)piperidin-4-amine], the IC50 was 0.36 nM.

With `c1ccc2c(c1)OC[C@H](c1ccc(CN3CCC(c4nnn[nH]4)CC3)cc1)O2` [Example 216, 1-[(S)-4-(2,3-Dihydro-benzo[1,4]dioxin-2-yl)-benzyl]-4-(1H-tetrazol-5-yl)-piperidine], the IC50 came to 0.13 nM.

Take `O=C(C1CCN(Cc2ccc([C@H]3COc4ccccc4O3)cc2)CC1)N1CCOCC1` [Example 180, (1-{4-[(2S)-2,3-dihydro-1,4-benzodioxin-2-yl]benzyl}piperidin-4-yl)(morpholin-4-yl)methanone]: the IC50 is 0.12 nM.

On to `CN(C)C1CCN(Cc2ccc([C@H]3COc4ccccc4O3)cc2)C1` (stereo partly drawn) [Example 93, 1-{4-[(2S)-2,3-dihydro-1,4-benzodioxin-2-yl]benzyl}-N,N-dimethylpyrrolidin-3-amine], for which the IC50 came to 1.98 nM.

Regarding `CN1CCCN(Cc2ccc(C3COc4ccccc4O3)cc2)CC1` (racemic) [Example 30, 1-[4-(2,3-dihydro-1,4-benzodioxin-2-yl)benzyl]-4-methyl-1,4-diazepane], the IC50 was determined as 1.77 nM.

For the compound `CC(=O)N1CCCN(Cc2ccc([C@H]3COc4cccnc4O3)cc2)CC1` [Example 148, 1-(4-{4-[(3S)-2,3-dihydro[1,4]dihydro[2,3-b]pyridin-3-yl]benzyl}-1,4-diazepan-1-yl)ethanone], the IC50 is 0.28 nM.

`CC(c1ccc([C@H]2COc3ccccc3O2)cc1)N1CCOCC1` (stereo partly drawn) [Example 226, 4-(1-{4-[(2S)-2,3-dihydro-1,4-benzodioxin-2-yl]phenyl}ethyl)morpholine]: the IC50 was found to be 43 nM.

As to `Cn1cnc(CNCc2ccc(C3COc4ccccc4O3)cc2)c1` (racemic) [Example 55, 1-[4-(2,3-dihydro-1,4-benzodioxin-2-yl)phenyl]-N-[(1-methyl-1H-imidazol-4-yl)methyl]methanamine], the IC50 amounted to 3.63 nM.

For the origin of these results see patent publication US8946203B2, “Benzodioxane inhibitors of leukotriene production” (Boehringer Ingelheim International GmbH, priority 2012, dated 2015).
